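96-well plates; 48 h exposure; 5 concentrations. Endpoints by linear interpolation between flanking doses. Not reached: highest tested concentration assigned. GI50: concentration for 50% inhibition of growth. TGI marks complete inhibition of growth.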
Experiments:
Test in all cases: DTP human tumour cell line panel, 48 h
[1] = test system: K-562 leukemia
[2] = test system: KM12 colon
[3] = test system: LOX IMVI melanoma
[4] = test system: M14 melanoma
[5] = test system: MALME-3M melanoma
[6] = test system: MDA-MB-231 breast
[7] = test system: OVCAR-5 ovarian
[8] = test system: RPMI-8226 leukemia
[9] = test system: SF-539 CNS
[10] = test system: SK-MEL-5 melanoma

SMILES	TGI [1] [µM]	TGI [2] [µM]	TGI [3] [µM]	TGI [4] [µM]	TGI [5] [µM]	TGI [6] [µM]	TGI [7] [µM]	TGI [8] [µM]	TGI [9] [µM]	TGI [10] [µM]	GI50 [4] [µM]	GI50 [5] [µM]	GI50 [7] [µM]	GI50 [8] [µM]	GI50 [9] [µM]	GI50 [10] [µM]	GI50 [2] [µM]	GI50 [6] [µM]
CC(NC1=NCCO1)c1cccc([N+](=O)[O-])c1 (centres undefined)	> 100	> 100	> 100	> 100	> 100	> 100	> 100	> 100	> 100	> 100	–	–	–	–	–	–	–	–
O=C1CCC2(CC1CCSc1ccccc1)OCCO2 (centres undefined)	> 100	> 100	> 100	> 100	> 100	> 100	> 100	> 100	> 100	> 100	–	–	–	–	–	–	–	–
O=C1OC2(C(F)(F)F)Oc3ccccc3CN2C12CCCCC2 (centres undefined)	52.6	90.8	52.7	66	53.2	59.5	> 100	–	> 100	–	–	–	–	–	–	–	–	–
O=C(NC1(C(=O)NNc2nnc(-c3ccccc3)c(-c3ccccc3)n2)C(c2ccccc2)C(c2ccccc2)=NN1c1ccccc1)c1ccccc1 (centres undefined)	–	> 100	–	> 100	> 100	> 100	> 100	–	> 100	> 100	–	–	–	–	–	–	–	–
S=c1nc2[nH]c3ccc(Br)cc3c2n[nH]1	> 100	> 100	79.7	> 100	> 100	> 100	> 100	> 100	> 100	> 100	–	–	–	–	–	–	–	–
CSc1nc(NC2OCC(O)C(O)C2O)c(N)c(=O)n1C (centres undefined)	> 100	> 100	> 100	–	> 100	–	> 100	> 100	> 100	> 100	–	–	–	–	–	–	–	–
CCOP(=O)(OCC)/C(=C\N1C(=O)CC(=O)NC1=S)C(=O)OC	–	> 100	> 100	> 100	–	> 100	> 100	–	> 100	> 100	–	–	–	–	–	–	–	–
NC(c1ccccc1)(C(F)(F)F)P1(=O)OC(=O)c2ccccc2O1 (centres undefined)	> 100	> 100	–	> 100	–	> 100	> 100	> 100	> 100	> 100	–	–	–	–	–	–	–	–
COC(=O)c1nc(-c2ccc3c(n2)C(=O)C(N)=C(OC)C3=O)c(N)c(-c2ccc(OC)c(OC)c2O)c1C	5.63	6.13	–	–	1.74	–	–	3.6	1.39	1.96	–	–	–	–	–	–	–	–
O=C(NNc1cn[nH]c(=O)c1Cl)/C(=C/c1ccc2c(c1)OCO2)NC(=O)c1ccccc1	–	> 100	> 100	> 100	–	> 100	> 100	–	> 100	> 100	–	–	–	–	–	–	–	–
CCOC(=O)c1c2c(n3ccc(NC(=O)OC(C)(C)C)cc13)C(=O)c1ncccc1C2=O	–	–	–	1.26	1.27	–	1.65	3.16	0.549	0.388	0.0445	0.0997	0.0971	0.387	0.118	0.174	–	–
C=C1C(=O)O[C@H]2C/C(C)=C/CC/C(C)=C/CC[C@@](C)(O)[C@@H](I)C[C@@H]12	13.5	18.5	3.31	24.8	22.3	26.9	30.2	12.9	12.3	28.2	–	–	–	–	–	–	–	–
Cc1nccn1S(=O)(=O)c1ccc(Br)cc1Br	> 100	88.7	> 100	39.7	> 100	48.5	> 100	47.4	41.4	43.9	–	–	–	–	–	–	–	–
Cc1ccc(-n2c(O)c3c(N)n[nH]c3c(C#N)c2=O)cc1	> 100	> 100	> 100	> 100	> 100	> 100	> 100	> 100	> 100	> 100	–	–	–	–	–	–	–	–
CCOC(=O)c1c2c(n(-c3ccc(OC)cc3)c1C)C(=O)C(=O)c1ccccc1-2	–	3.61	2.49	3.17	0.605	4.37	3.46	2.86	1.76	2.59	–	–	–	–	–	–	–	–
CN1C/C(=C\c2ccc(Cl)cc2)C(=O)/C(=C/c2ccc(Cl)cc2)C1	> 100	2.39	0.612	5.48	> 100	8.08	> 100	0.895	1.8	> 26.5	–	–	–	–	–	–	–	–
Cc1cn(CC2=NCCCN2)c(=O)[nH]c1=O	> 100	–	> 100	> 100	> 100	> 100	> 100	> 100	–	> 100	–	–	–	–	–	–	–	–
O=C(c1ccccc1)c1c(C(F)(F)F)n([O-])c2cc(Cl)c(Cl)cc2[n+]1=O	6.09	1.08	2.46	3.2	5.33	–	3.41	1.15	3.88	5.13	–	–	–	–	–	–	–	–
C1#Cc2ccccc2OCCOc2ccccc2C#Cc2ccccc2OCCOc2ccccc21	24.3	> 100	33.4	> 100	73	54.9	65.2	42.4	–	58.7	–	–	–	–	–	–	–	–
Cc1cccc2nc3cccc(C(=O)NCCC[N+](C)(CCCNC(=O)c4cccc5nc6cccc(C)c6nc45)Cc4c([N+](=O)[O-])ncn4C)c3nc12	> 1100	> 1100	18.8	–	432	> 1100	–	0.521	9.07	366	–	26.2	–	–	1.59	12.1	17.5	> 1100
CCOC(=O)C(NC(=O)CC(C)C)(Nc1ccc(C(F)(F)F)cc1)C(F)(F)F (centres undefined)	> 100	55.6	> 100	> 100	> 100	–	> 100	93.8	> 100	> 100	–	–	–	–	–	–	–	–
CC1(C)[C@@H](Cn2cnc3c(=O)[nH]c(N)nc32)CC[C@@]1(C)CO	> 100	> 100	> 100	> 100	–	> 100	> 100	> 100	> 100	> 100	–	–	–	–	–	–	–	–

From PubChem BioAssay (NCI)
